Like-named read-outs stand apart in the source and are kept apart here.
Tested on: panel of cell lines derived from hematological malignancies
Test: Cell survival assay, CellTiter-Glo readout after 48 hours, hematological panel
Assay type: cell-based
Design: key to Differential: panel average log(GI50) minus cell line log(GI50); positive = more sensitive
Procedure: Compound IIa was tested against a panel of cell lines derived from hematological malignancies in a cell survival assay using CellTiter-Glo® as a readout after 48 hours in the presence of compound. Table 18 lists the type of hematological malignancy, the name of the sample, its GI50 (concentration needed to achieve 50% growth inhibition) value in the assay, the logarithm of the GI50 (log(GI50), and the relative sensitivity of each sample (Differential). The differential is calculated by subtracting the log(GI50) for each cell line from the average log(GI50) across the entire panel (0.236 in this case); a positive value indicates a sample that is more sensitive than average, whereas a negative value indicates a sample that is less sensitive than average.

## CC(C)(C)[C@H](c1nc(-c2cc(F)ccc2F)cn1Cc1ccccc1)N(CC[C@H](N)CF)C(=O)CO [Compound IIa]
697 (ALL)
  Differential: 0.613
48 h, 697 (ALL), read-out: GI50
  GI50: 0.11 nM
48 h, 697 (ALL), read-out: Log(GI50) (converted)
  GI50: 0.105 nM
48 h, AML-193 (AML), read-out: GI50
  GI50: 0.11 nM
48 h, AML-193 (AML), read-out: Log(GI50) (converted)
  GI50: 0.11 nM
48 h, DEL (NHL), read-out: GI50
  GI50: 0.28 nM
48 h, DEL (NHL), read-out: Log(GI50) (converted)
  GI50: 0.283 nM
48 h, H929-Luc (MM), read-out: GI50
  GI50: 1.69 nM
48 h, H929-Luc (MM), read-out: Log(GI50) (converted)
  GI50: 1.69 nM
48 h, HEL92 (AML), read-out: GI50
  GI50: 0.49 nM
48 h, HEL92 (AML), read-out: Log(GI50) (converted)
  GI50: 0.49 nM
48 h, HH (NHL), read-out: GI50
  GI50: 0.22 nM
48 h, HH (NHL), read-out: Log(GI50) (converted)
  GI50: 0.215 nM
48 h, KMS11-Luc (MM), read-out: GI50
  GI50: 0.29 nM
48 h, KMS11-Luc (MM), read-out: Log(GI50) (converted)
  GI50: 0.29 nM
48 h, KMS12 (MM), read-out: GI50
  GI50: 0.29 nM
48 h, KMS12 (MM), read-out: Log(GI50) (converted)
  GI50: 0.29 nM
48 h, KMS18-Luc (MM), read-out: GI50
  GI50: 0.52 nM
48 h, KMS18-Luc (MM), read-out: Log(GI50) (converted)
  GI50: 0.518 nM
48 h, Karpas-299-Luc (NHL), read-out: GI50
  GI50: 20.2 nM
48 h, Karpas-299-Luc (NHL), read-out: Log(GI50) (converted)
  GI50: 20.2 nM
48 h, LP1 (MM), read-out: GI50
  GI50: 0.21 nM
48 h, LP1 (MM), read-out: Log(GI50) (converted)
  GI50: 0.205 nM
48 h, MHH-CALL-2 (ALL), read-out: GI50
  GI50: 0.32 nM
48 h, MHH-CALL-2 (ALL), read-out: Log(GI50) (converted)
  GI50: 0.315 nM
48 h, MHH-CALL-3 (ALL), read-out: GI50
  GI50: 0.2 nM
48 h, MHH-CALL-3 (ALL), read-out: Log(GI50) (converted)
  GI50: 0.2 nM
48 h, MM1-S-Luc (MM), read-out: GI50
  GI50: 0.23 nM
48 h, MM1-S-Luc (MM), read-out: Log(GI50) (converted)
  GI50: 0.23 nM
48 h, MOLM13-Luc (AML), read-out: GI50
  GI50: 0.23 nM
48 h, MOLM13-Luc (AML), read-out: Log(GI50) (converted)
  GI50: 0.226 nM
48 h, MUTZ-5 (ALL), read-out: GI50
  GI50: 10 nM
48 h, MUTZ-5 (ALL), read-out: Log(GI50) (converted)
  GI50: 10 nM
48 h, MV4, 11Luc (AML), read-out: GI50
  GI50: 0.11 nM
48 h, MV4, 11Luc (AML), read-out: Log(GI50) (converted)
  GI50: 0.105 nM
48 h, Mean across the entire panel, read-out: GI50
  GI50: 0.43 nM
48 h, Mean across the entire panel, read-out: Log(GI50) (converted)
  GI50: 0.431 nM
48 h, NALM-19 (ALL), read-out: GI50
  GI50: 0.19 nM
48 h, NALM-19 (ALL), read-out: Log(GI50) (converted)
  GI50: 0.19 nM
48 h, REH (ALL), read-out: GI50
  GI50: 0.18 nM
48 h, REH (ALL), read-out: Log(GI50) (converted)
  GI50: 0.18 nM
48 h, RL (NHL), read-out: GI50
  GI50: 20 nM
48 h, RL (NHL), read-out: Log(GI50) (converted)
  GI50: 20 nM
48 h, SEM-Luc (ALL), read-out: GI50
  GI50: 0.15 nM
48 h, SEM-Luc (ALL), read-out: Log(GI50) (converted)
  GI50: 0.15 nM
48 h, SR (NHL), read-out: GI50
  GI50: 0.11 nM
48 h, SR (NHL), read-out: Log(GI50) (converted)
  GI50: 0.11 nM
48 h, TANOUE (ALL), read-out: GI50
  GI50: 10 nM
48 h, TANOUE (ALL), read-out: Log(GI50) (converted)
  GI50: 10 nM
48 h, YT (ALL), read-out: GI50
  GI50: 10 nM
48 h, YT (ALL), read-out: Log(GI50) (converted)
  GI50: 10 nM
48 h, hematological panel, read-out: average log(GI50) across the entire panel (converted)
  GI50: 1.72 nM
AML-193 (AML)
  Differential: 0.593
CCRF-CEM (ALL)
  Differential: 0.419
CCRF-HSB-2 (ALL)
  Differential: 0.367
DEL (NHL)
  Differential: 0.182
DOHH2 (NHL)
  Differential: 0.263
H929 (MM)
  Differential: 0.109
H929-Luc (MM)
  Differential: −0.593
HDLM-2 (HL)
  Differential: 0.555
HEL92 (AML)
  Differential: −0.056
HH (NHL)
  Differential: 0.301
HL60 (AML)
  Differential: 0.416
HL60-Luc (AML)
  Differential: −0.072
HL-60-Luc, 48 h, HL60-Luc (AML), read-out: GI50
  GI50: 0.51 nM
HL-60-Luc, 48 h, HL60-Luc (AML), read-out: Log(GI50) (converted)
  GI50: 0.508 nM
Homo sapiens, CCRF-CEM, 48 h, CCRF-CEM (ALL), read-out: GI50
  GI50: 0.16 nM
Homo sapiens, CCRF-CEM, 48 h, CCRF-CEM (ALL), read-out: Log(GI50) (converted)
  GI50: 0.164 nM
Homo sapiens, CCRF-HSB-2, 48 h, CCRF-HSB-2 (ALL), read-out: GI50
  GI50: 0.19 nM
Homo sapiens, CCRF-HSB-2, 48 h, CCRF-HSB-2 (ALL), read-out: Log(GI50) (converted)
  GI50: 0.185 nM
Homo sapiens, DOHH-2, 48 h, DOHH2 (NHL), read-out: GI50
  GI50: 0.24 nM
Homo sapiens, DOHH-2, 48 h, DOHH2 (NHL), read-out: Log(GI50) (converted)
  GI50: 0.235 nM
Homo sapiens, HDLM-2, 48 h, HDLM-2 (HL), read-out: GI50
  GI50: 0.12 nM
Homo sapiens, HDLM-2, 48 h, HDLM-2 (HL), read-out: Log(GI50) (converted)
  GI50: 0.12 nM
Homo sapiens, HL-60, 48 h, HL60 (AML), read-out: GI50
  GI50: 0.17 nM
Homo sapiens, HL-60, 48 h, HL60 (AML), read-out: Log(GI50) (converted)
  GI50: 0.165 nM
Homo sapiens, HuT78, 48 h, HuT78 (NHL), read-out: GI50
  GI50: 0.28 nM
Homo sapiens, HuT78, 48 h, HuT78 (NHL), read-out: Log(GI50) (converted)
  GI50: 0.275 nM
Homo sapiens, K562, 48 h, K562 (CML), read-out: GI50
  GI50: 0.21 nM
Homo sapiens, K562, 48 h, K562 (CML), read-out: Log(GI50) (converted)
  GI50: 0.209 nM
Homo sapiens, KARPAS-299, 48 h, Karpas-299 (NHL), read-out: GI50
  GI50: 0.2 nM
Homo sapiens, KARPAS-299, 48 h, Karpas-299 (NHL), read-out: Log(GI50) (converted)
  GI50: 0.2 nM
Homo sapiens, KARPAS-422, 48 h, Karpas-422 (NHL), read-out: GI50
  GI50: 5.14 nM
Homo sapiens, KARPAS-422, 48 h, Karpas-422 (NHL), read-out: Log(GI50) (converted)
  GI50: 5.14 nM
Homo sapiens, KM-H2, 48 h, KM-H2 (HL), read-out: GI50
  GI50: 0.23 nM
Homo sapiens, KM-H2, 48 h, KM-H2 (HL), read-out: Log(GI50) (converted)
  GI50: 0.233 nM
Homo sapiens, KMS-11, 48 h, KMS11 (MM), read-out: GI50
  GI50: 0.48 nM
Homo sapiens, KMS-11, 48 h, KMS11 (MM), read-out: Log(GI50) (converted)
  GI50: 0.483 nM
Homo sapiens, Kasumi 1, 48 h, Kasumi-1 (AML), read-out: GI50
  GI50: 0.44 nM
Homo sapiens, Kasumi 1, 48 h, Kasumi-1 (AML), read-out: Log(GI50) (converted)
  GI50: 0.44 nM
Homo sapiens, L-363, 48 h, L363 (MM), read-out: GI50
  GI50: 0.13 nM
Homo sapiens, L-363, 48 h, L363 (MM), read-out: Log(GI50) (converted)
  GI50: 0.13 nM
Homo sapiens, L-428, 48 h, L428 (HL), read-out: GI50
  GI50: 20 nM
Homo sapiens, L-428, 48 h, L428 (HL), read-out: Log(GI50) (converted)
  GI50: 20 nM
